Assay results: paper PMC11395333, “The Bifunctional Dimer Caffeine-Indan Attenuates α-Synuclein Misfolding, Neurodegeneration and Behavioral Deficits after Chronic Stimulation of Adenosine A1 Receptors” (International Journal of Molecular Sciences, 2024)

Columns and labels:
Type in all cases: in vivo, rat
[1] = test system: male Sprague-Dawley rats; assay: Y-maze test after 7-day chronic i.p. CPA injection
Excerpt: All animals were housed and treated humanely following the guidelines from the following governing bodies: National Research Council (US) Committee for the Update of the Guide for the Care and Use of Laboratory Animals (Washington DC, USA, 2011); Canadian Council on Animal Care (CCAC); and the University of Saskatchewan Animal Research Ethics Board (AREB), which approved our Animal Use Protocol (#20070090 and #20170079). The animals were housed in cages of two, with access to food pellets and water ad libitum. The four treatments of the Sprague-Dawley rats consisted of the following: 1. Control (0.1% DMSO in 0.9% saline); 2. CPA; 3. […] Drugs were dissolved at 3 mg/mL in DMSO, and each drug was administered to the animals by daily i.p. injections (3 mg/kg or 5 mg/kg body weight) for 7 consecutive days. […] Then, on days 8 and 9 following the final injections, the animals were subjected to several behavioral tests. The Y-maze or the modified Y-maze is a rodent behavior test used to assess short-term spatial memory based on the innate inclination of animals to explore new areas not previously seen. In this study, the Y-maze test is used to assess short-term memory, especially hippocampal-dependent spatial memory. The maze is shaped like a “Y”, with each arm oriented at a 120° angle from one another. The arms are 50 cm in length, 15 cm in width and 35 cm in depth. For the first trial, which lasts 15 min, the animal is placed at the beginning of the “Start arm” and is free to explore this arm and another one (referred to as the “Old arm”), while the remaining arm (“New arm”) is blocked. This trial should give the animal time to explore and become acquainted with the maze’s two arms. After a resting period of 90 min, the blocked arm is opened, and the animal is placed again at the “Start arm”. […] This trial is then used to calculate the percentage of time the animals spent in each arm. A video camera was used to record the animal movement in both trials. Each experiment was repeated at least fifteen times per treatment and the average of each treatment is presented in the bar graphs as average means ± standard error of the mean (SEM).

[2] = test system: SN pars compacta and hippocampal CA1 neurons; assay: Fluoro-Jade C staining of brain slices (neurodegeneration)
Excerpt: All animals were housed and treated humanely following the guidelines from the following governing bodies: National Research Council (US) Committee for the Update of the Guide for the Care and Use of Laboratory Animals (Washington DC, USA, 2011); Canadian Council on Animal Care (CCAC); and the University of Saskatchewan Animal Research Ethics Board (AREB), which approved our Animal Use Protocol (#20070090 and #20170079). The animals were housed in cages of two, with access to food pellets and water ad libitum. The four treatments of the Sprague-Dawley rats consisted of the following: 1. Control (0.1% DMSO in 0.9% saline); 2. CPA; 3. […] Drugs were dissolved at 3 mg/mL in DMSO, and each drug was administered to the animals by daily i.p. injections (3 mg/kg or 5 mg/kg body weight) for 7 consecutive days. […] Then, on days 8 and 9 following the final injections, the animals were subjected to several behavioral tests. Fluro-Jade C (FJC) is a fluorescent marker for neurodegeneration (Millipore-Sigma, Oakville, ON, Canada; Cat# AG325). […] Initially, the microscope slides were immersed in 1% NaOH/80% ethanol for 5 min followed by 2 min immersion in 70% ethanol. The slides were then rinsed for 2 min with ultra-pure water. The microscope slides were further immersed in 0.06% KMnO4 for 10 min, followed by an additional rinse for 2 min with ultra-pure water. The slides were then stained with 0.004% FJC in 0.1% acetic acid for 20 min with gentle shaking on an orbital shaker. Lastly, the slides were rinsed three times in ultra-pure water for 1 min each, making sure to remove all the excess water after each rinse. The slides were then rinsed in xylene and allowed to dry overnight at 4 °C. Then they were treated with Prolong Gold Antifade Reagent from Invitrogen (Thermo Fisher Scientific, Waltham, MA, USA), and respective images were taken using a Zeiss LSM700 confocal microscope (Carl Zeiss Group, Canada) and analyzed with ImageJ (Public Domain). FJC fluorescence was obtained by exciting the dye with a 488 nm laser.

[3] = test system: male Sprague-Dawley rats; assay: Forced swim test after 7-day chronic i.p. CPA injection
Excerpt: All animals were housed and treated humanely following the guidelines from the following governing bodies: National Research Council (US) Committee for the Update of the Guide for the Care and Use of Laboratory Animals (Washington DC, USA, 2011); Canadian Council on Animal Care (CCAC); and the University of Saskatchewan Animal Research Ethics Board (AREB), which approved our Animal Use Protocol (#20070090 and #20170079). The animals were housed in cages of two, with access to food pellets and water ad libitum. The four treatments of the Sprague-Dawley rats consisted of the following: 1. Control (0.1% DMSO in 0.9% saline); 2. CPA; 3. […] Drugs were dissolved at 3 mg/mL in DMSO, and each drug was administered to the animals by daily i.p. injections (3 mg/kg or 5 mg/kg body weight) for 7 consecutive days. […] Then, on days 8 and 9 following the final injections, the animals were subjected to several behavioral tests. The forced swim test is used to assess depressive behavior such as despair and learned helplessness. The test is also used to assess the vigor and the ability of the animal to keep its head above the water in which the animals swim. In addition, the first and last three minutes of the test were manually scored for the ability of the rat to swim with all its four limbs. […] In addition, the ability of the animal to keep its head above water was scored. […] The forced swim test apparatus was a plexiglass cuboid measuring 30 cm in length, 30 cm in width and 60 cm in depth. The tank was then filled two-thirds with lukewarm water not exceeding 25 °C. Afterwards, the animal was left in the cylinder for 10 min during which its time spent immobile as well as its ability to swim and keep its head above water was analyzed. This trial was then used to calculate the percentage of time the animals spent immobile, as well as the vigor and success with which the animal swam. A video camera was used to record the animal movement in this test. The forced swim test was conducted the following day (day nine), giving the animals a sufficient resting period from the Y-maze and open field tests. Each experiment was repeated at least fifteen times per treatment, and the average of each treatment is presented in the bar graphs as average means ± SEM.

[4] = 5 mg/kg i.p. with 3 mg/kg CPA, 7 days
[5] = 3 or 5 mg/kg i.p. with 3 mg/kg CPA, 7 days
[6] = CPA 3 mg/kg i.p. daily for 7 days, alone

SMILES | Y-maze, time spent in the start arm ([1]; 3 mg/kg i.p. with 3 mg/kg CPA, 7 days) | Y-maze, cognitive deficits [1, 4] | Y-maze, percentage of time spent in the novel arm ([1]; 3 or 5 mg/kg i.p. co-administered with 3 mg/kg CPA, 7 days) | FJC staining in SNc ([2]; 3 mg/kg and 5 mg/kg + CPA) | FJC, neurodegeneration in CA1 region of the hippocampus ([2]; 3 mg/kg or 5 mg/kg with CPA) | Forced swim test, vigor and success scores [3, 4] | Forced swim test, immobility time [3, 5] | Forced swim test, motor deficits [3, 5] | Y-maze, hippocampal-dependent spatial memory [1, 6] | FJC fluorescence in SNc [2, 6] | FJC, degenerating neurons in CA1 region of the hippocampus [2, 6] | Forced swim test, motor deficits [3, 6]
Cn1c(=O)c2c(nc(CCCCCCNC3CCc4ccccc43)n2C)n(C)c1=O (stereo not drawn) [C8–6–I] | approximately 45% | significantly ameliorated the cognitive deficits caused by CPA | attenuated the learning deficits caused by CPA | did not significantly increase FJC staining compared to the vehicle control slices | prevented neurodegeneration in hippocampal slices | significantly improved the ability to purposely swim and use all limbs, as well as the ability to keep their head above water | spent significantly less time being immobile compared to the CPA-treated rats | produced no significant motor deficits | – | – | – | –
OC[C@H]1O[C@@H](n2cnc3c(NC4CCCC4)ncnc32)[C@H](O)[C@@H]1O [CPA, N^6-Cyclopentyladenosine, reference compound] | – | – | – | – | – | – | – | – | induced hippocampal-dependent spatial memory deficits | increased the levels of FJC fluorescence compared to the control | much higher levels of degenerating CA1 pyramidal neurons compared to the control | induced an increase in motor deficits
